In paper PMC6930863 (CPT: Pharmacometrics & Systems Pharmacology, 2019):
Several values for one entry are separate records, joined by “and”; a condition that tells them apart may be missing. Equal entries are not always repeated. Where two headings read alike, the source gives them in different places. Blank lines part the entries; values can stand above or below the molecule they belong to.

How the values were obtained:
[1] = rat
[2] = human; cited from earlier work
[3] = cited from earlier work
[4] = test system: proliferative crypt cells, including stem cells and proliferative progenitor cells; type: in vivo, Sprague-Dawley rats; conditions: rat, on proliferative crypt cells, fitted to plasma citrulline
[5] = test system: proliferative cells (the stem cells and proliferative progenitors); assay: Translated and calibrated human system toxicology model; design: species or system humans; conditions: fitted to published villus area data after chemotherapy, value (% RSE)
[6] = rat, fixed to literature value; cited from earlier work
[7] = human; cited from earlier work; remark: listed apart in the source

Vmax, maximum rate of conversion from irinotecan to SN-38 ([1]; i.p. irinotecan, population TK model estimate): 20.6 nmol/h/kg
Dmaxp, coefficient for maximum irinotecan loss during absorption ([1]; i.p., population TK model estimate): 430 mg/kg
ka, absorption rate constant of irinotecan ([1]; i.p., % RSE NA): 10 h⁻¹
Structure (SMILES): CCc1c2c(nc3ccc(OC(=O)N4CCC(N5CCCCC5)CC4)cc13)-c1cc3c(c(=O)n1C2)COC(=O)[C@]3(O)CC [Irinotecan]
k12, rate constant from central to peripheral 1 of irinotecan [2]: 57.8 h⁻¹
k21, rate constant from peripheral 1 to central of irinotecan [2]: 2.58 h⁻¹
k31, rate constant from peripheral 2 to central of irinotecan [2]: 0.0812 h⁻¹
occurrence of ≥grade 3 diarrhea in the BI3W schedule compared with Q3W ([3]; 175 mg/m^2 days 1 and 10 every 3 weeks vs 350 mg/m^2 once every 3 weeks): significantly higher
efficacy in both dosing regimens (Q3W and BI3W) ([3]; 350 mg/m^2 Q3W vs 175 mg/m^2 BI3W): similar

CLm, clearance of SN-38 ([1]; after i.p. irinotecan): 7.73 mL/min/kg
Vm, volume of SN-38 ([1]; after i.p. irinotecan, % RSE NA): 0.01 L/kg
Structure (SMILES): CCc1c2c(nc3ccc(O)cc13)-c1cc3c(c(=O)n1C2)COC(=O)[C@]3(O)CC [SN‐38, 7‐ethyl‐10‐hydroxy‐camptothecin]
kkill, cytotoxic rate by SN-38 [4]: 146 M⁻¹ s⁻¹
kkill, cytotoxic rate by SN-38 [5]: 11.0 1/day/μM and 11.0 (0.0328) 1/day/μM
Vm, central volume of SN-38 [2]: 200 L
kem, elimination rate constant of SN-38 [2]: 2.52 h⁻¹
mk12, rate constant from central to peripheral 1 of SN-38 [2]: 2.6 h⁻¹
mk21, rate constant from peripheral 1 to central of SN-38 [2]: 0.0584 h⁻¹

Structure (SMILES): NC(=O)NCCC[C@H](N)C(=O)O [citrulline]
kout, elimination rate constant of plasma citrulline [6]: 8.52 day⁻¹
kout, elimination rate constant of plasma citrulline [7]: 18.6 day⁻¹
plasma citrulline half-life [7]: 39 to 68.4 min
